Laboratory results taken from the supplement of paper PMC10307832.

Columns and labels:
Assay in all cases: relative viability (nuclei count vs DMSO), 5 days (fraction); higher = more cells survive
Zebularine + Pemetrexed = compound: O=c1ncccn1[C@@H]1O[C@H](CO)[C@@H](O)[C@H]1O [Zebularine] + Nc1nc2[nH]cc(CCc3ccc(C(=O)N[C@@H](CCC(=O)O)C(=O)O)cc3)c2c(=O)[nH]1 [Pemetrexed] (partner 0.2 µM)
In short: (§1)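 Relative viability divides the nuclei count in treated wells by that in vehicle wells. Lung cancer cell lines were seeded in 1536-well plates, dosed by pin tool the next day, and fixed and stained after 5 days in one step with final 0.05% Triton X-100, 1% formaldehyde and 1 ug/ml Hoechst. Dosing was a single drug or a fixed anchor-drug dose plus five library-drug doses (not always all listed) in √10 steps, and values are medians of duplicate plates imaged at 4×.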

BI-D1870 + OSI-027 = compound: CC(C)CCN1c2nc(Nc3cc(F)c(O)c(F)c3)ncc2N(C)C(=O)C1C [BI-D1870] + COc1cccc2cc(-c3nc([C@H]4CC[C@H](C(=O)O)CC4)n4ncnc(N)c34)[nH]c12 [OSI-027] (partner 0.5 µM)
In short: as §1

Zebularine = compound: O=c1ncccn1[C@@H]1O[C@H](CO)[C@@H](O)[C@H]1O [Zebularine]
In short: (§2)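 Viability is treated-well nuclei as a fraction of vehicle-well nuclei, reported as the median across plates. Before counting, lung cancer cell lines were kept overnight at 37 °C in 1536-well plates, pinned with five √10-spaced library-drug doses on vehicle-anchored plates, and left 5 days without medium change, then fixed, permeabilised and Hoechst-stained in one step, imaged at 4× and counted by MetaXpress. A plate passed only if control CV was below 25% and at least one doubling occurred.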

BI-D1870 = compound: CC(C)CCN1c2nc(Nc3cc(F)c(O)c(F)c3)ncc2N(C)C(=O)C1C [BI-D1870]
In short: as §2

| Cell Line | relative viability (Zebularine + Pemetrexed; first compound 1 µM) | relative viability (Zebularine + Pemetrexed; first compound 3.162 µM) | relative viability (Zebularine + Pemetrexed; first compound 10 µM) | relative viability (Zebularine + Pemetrexed; first compound 31.62 µM) | relative viability (Zebularine + Pemetrexed; first compound 100 µM) | relative viability (BI-D1870 + OSI-027; first compound 0.04 µM) | relative viability (BI-D1870 + OSI-027; first compound 0.1265 µM) | relative viability (BI-D1870 + OSI-027; first compound 0.4 µM) | relative viability (BI-D1870 + OSI-027; first compound 1.265 µM) | relative viability (BI-D1870 + OSI-027; first compound 4 µM) | relative viability (Zebularine; 1 µM) | relative viability (Zebularine; 3.162 µM) | relative viability (Zebularine; 10 µM) | relative viability (Zebularine; 31.62 µM) | relative viability (Zebularine; 100 µM) | relative viability (BI-D1870; 0.04 µM) | relative viability (BI-D1870; 0.1265 µM) | relative viability (BI-D1870; 0.4 µM) | relative viability (BI-D1870; 1.265 µM) | relative viability (BI-D1870; 4 µM) |
| --- | --- | --- | --- | --- | --- | --- | --- | --- | --- | --- | --- | --- | --- | --- | --- | --- | --- | --- | --- | --- |
| PC-3 [JPC-3] | 1.43 | 1.06 | 1.07 | 0.755 | 0.813 | 0.752 | 0.703 | 0.674 | 0.697 | 0.565 | 1.07 | 1.01 | 0.711 | 0.868 | 0.76 | 1.05 | 1.02 | 0.962 | 1.1 | 0.951 |
| PC-14 | 0.136 | 0.139 | 0.0749 | 0.0697 | 0.0552 | 0.995 | 0.626 | 0.747 | 0.773 | 0.605 | 1.18 | 0.694 | 0.19 | 0.138 | 0.109 | 1.09 | 0.943 | 0.97 | 1.08 | 0.767 |
| RERF-LC-KJ | 0.447 | 0.505 | 0.415 | 0.507 | 0.443 | 0.595 | 0.478 | 0.558 | 0.628 | 0.389 | 1.11 | 1.03 | 0.859 | 1.01 | 0.994 | 1.01 | 0.908 | 0.954 | 1.02 | 0.814 |
| SK-LU-1 | 1.03 | 0.922 | 0.52 | 0.523 | 0.542 | 0.386 | 0.305 | 0.26 | 0.299 | 0.199 | 1.07 | 0.989 | 0.626 | 0.739 | 0.544 | 1.07 | 0.91 | 0.972 | 0.997 | 0.669 |
| SK-MES-1 | 1.08 | 0.918 | 0.613 | 0.709 | 0.322 | 0.699 | 0.559 | 0.567 | 0.55 | 0.336 | 1.11 | 1.06 | 0.704 | 0.673 | 0.286 | 1.05 | 0.911 | 0.892 | 0.829 | 0.617 |
| SW 900 | 0.534 | 0.483 |  | 0.53 | 0.41 | 0.808 | 0.424 | 0.442 | 0.604 | 0.327 | 1.04 | 0.839 | 0.661 | 0.843 | 0.651 | 1.03 | 0.95 | 0.864 | 1.02 | 0.894 |
| SW 1573 | 0.798 | 0.854 |  | 0.855 | 0.522 | 0.598 | 0.436 | 0.513 | 0.477 | 0.329 | 1.04 | 0.897 | 0.721 | 1.01 | 0.77 | 1.14 | 0.896 | 0.968 | 0.857 | 0.61 |
